What was measured:
human H3 receptor [1] = molecular target: T1, human H3 receptor (Homo sapiens, UniProt Q9Y5N1); test: H3 receptor binding test; conditions: membrane preparation of human H3 receptor-expressing CHO-K1 cells; 2 nM R(−)-α-methyl[3H]histamine; room temperature, 1 hour
T1 construct: purchased Euroscreen ES-392-M; host or cells: CHO-K1 cells (recombinant expression)
Protocol: A membrane preparation of human H3 receptor-expressing CHO—K1 cells (Euroscreen, ES-392-M, 15 μg protein/200 μl), R(−)-α-methyl[^3H]histamine (Amersham, TRK-1017, specific activity: 1.74 TBq/mmol, 2 nM) and a test drug were reacted at room temperature for 1 hour. After completion of the reaction, the reaction mixture was subjected to suction filtration through a 0.3% polyethyleneimine-treated glass filter (GF/C). The glass filter was washed five times with 50 mM Tris-HCl washing solution (pH 7.4) containing 0.1% BSA and 5 mM magnesium chloride. After washing, the glass filter was dried and a scintillator was added thereto, followed by measurement of radioactivity on the filter using a liquid scintillation counter.
Binding of R(−)-α-methyl[^3H]histamine in the presence of 10 μM R(−)-α-methylhistamine was defined as non-specific binding, and the difference between total binding and non-specific binding of R(−)-α-methyl[^3H]histamine was defined as specific binding of R(−)-α-methyl[^3H]histamine. A fixed concentration (2 nM) of R(−)-α-methyl[^3H]histamine was reacted under the above conditions with each test drug at various concentrations to obtain an inhibition curve. The inhibition curve was used to determine the concentration (IC50) of each test drug required for 50% inhibition of R(−)-α-methyl[^3H]histamine binding.

human H3 receptor [2] = molecular target: T1, human H3 receptor; test: [35S]GTP-γ-S binding test; assay type: biochemical; conditions: human H3 receptor membrane preparation; 100 μM R(−)-α-methylhistamine; 0.2 nM [35S]GTP-γ-S; 30 μM GDP
Protocol: A human H3 receptor membrane preparation (7.5 μg protein/100 μl), 30 μM GDP, 100 μM R(−)-α-methylhistamine and a test compound were reacted at room temperature for 30 minutes. After completion of the reaction, [^35S]GTP-γ-S (0.2 nM) was added and reacted for an additional 30 minutes. After completion of the reaction, the reaction mixture was subjected to suction filtration through a glass filter (GF/C). The glass filter was washed three times with 20 mM HEPES washing solution (pH 7.4) containing 100 mM sodium chloride and 1 mM magnesium chloride. After washing, the glass filter was dried and a scintillator was added thereto, followed by measurement of radioactivity on the filter using a liquid scintillation counter.
Binding of [^35S]GTP-γ-S in the absence of R(−)-α-methylhistamine was defined as non-specific binding, and the difference between total binding in the presence of R(−)-α-methylhistamine and non-specific binding was defined as specific binding of [^35S]GTP-γ-S. Fixed concentrations of [^35S]GTP-γ-S (0.2 nM) and R(−)-α-methylhistamine (100 μM) were reacted under the above conditions with each test drug at various concentrations to obtain an inhibition curve. The inhibition curve was used to determine the concentration (IC50) of each test drug required for 50% inhibition of [^35S]GTP-γ-S binding.

male SD rats = test: Social recognition test; assay type: in vivo, rat; conditions: compared to the vehicle group
Protocol: In this test, male SD rats were used. Adult rats were placed in a Perspex test box and acclimated for 30 minutes. Then, young rats were placed in the same test box, and the time taken for the adult rats to show exploratory behavior to the young rats during 5 minutes was measured (first exploratory behavior time). The exploratory behavior measured included sniffing, grooming, and closely following. After a 5 minute exploration, the adult and young rats were removed from the test box and returned to their respective home cages. After 90 minutes, the adult rats were placed again in the same test box as used in the first exploratory behavior test and acclimated for 30 minutes. Then, the same young rats as used in the first test were placed in the test box, and the time taken for the adult rats to show exploratory behavior to the young rats during 5 minutes was measured (second exploratory behavior time). The ratio of the second exploratory behavior time to the first exploratory behavior time (second/first exploratory behavior time ratio) was taken as an indicator of social recognition. The compound of the present invention was orally administered to the adult rats immediately after their first exploratory behavior. The compound of the present invention was dissolved in 0.03 N hydrochloric acid and tested at 0.1, 0.3 and 1 mg/kg.

T1 sequence (Q9Y5N1 whole entry): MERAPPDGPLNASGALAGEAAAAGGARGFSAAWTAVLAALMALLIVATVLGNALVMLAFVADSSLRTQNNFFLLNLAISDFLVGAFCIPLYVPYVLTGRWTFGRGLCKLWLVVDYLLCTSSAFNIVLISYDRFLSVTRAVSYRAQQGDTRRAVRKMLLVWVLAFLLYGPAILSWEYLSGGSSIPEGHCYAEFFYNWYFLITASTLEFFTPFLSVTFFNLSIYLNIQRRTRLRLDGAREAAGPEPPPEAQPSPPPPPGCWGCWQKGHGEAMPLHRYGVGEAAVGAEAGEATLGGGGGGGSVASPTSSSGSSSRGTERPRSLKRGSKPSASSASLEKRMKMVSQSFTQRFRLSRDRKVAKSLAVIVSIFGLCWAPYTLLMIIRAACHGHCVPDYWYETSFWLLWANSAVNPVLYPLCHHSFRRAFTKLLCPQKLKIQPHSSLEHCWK

Row | IC50 (human H3 receptor [1]) | IC50 (human H3 receptor [2]) | SMILES | second/first exploratory behavior time ratio (male SD rats; 0.3 mg/kg orally to adult male SD rats immediately after first exploratory behavior) | second/first exploratory behavior time ratio (male SD rats; 1 mg/kg orally to adult male SD rats immediately after first exploratory behavior)
1 | 7.1 nM | 1.2 nM | O=C(c1ccn(-c2ccc(OC3CCN(C4CCC4)CC3)cc2)n1)N1CCCC1 [Compound No. 68, {1-[4-(1-cyclobutylpiperidin-4-yloxy)phenyl]-1H-pyrazol-3-yl}pyrrolidin-1-yl-methanone] | – | –
2 | 5.7 nM | 1.1 nM | O=C(NC1CCCC1)c1cnn(-c2ccc(OC3CCN(C4CCC4)CC3)cc2)c1 [compound 16, 1-{4-[(1-cyclobutylpiperidin-4-yl)oxy]phenyl}-N-cyclopentyl-1H-pyrazole-4-carboxamide] | – | –
3 | 14.7 nM | – | O=C(NCC(F)(F)F)c1cnn(-c2ccc(OC3CCN(C4CCC4)CC3)cc2)c1 [compound 18, 1-{4-[(1-cyclobutylpiperidin-4-yl)oxy]phenyl}-N-(2,2,2-trifluoroethyl)-1H-pyrazole-4-carboxamide] | – | –
4 | 6.2 nM | – | O=C(NCC1CCCCC1)c1cnn(-c2ccc(OC3CCN(C4CCC4)CC3)cc2)c1 [compound 19, 1-{4-[(1-cyclobutylpiperidin-4-yl)oxy]phenyl}-N-(cyclohexylmethyl)-1H-pyrazole-4-carboxamide] | – | –

Further lines, the compound ahead of its results:

Row | SMILES | IC50 (human H3 receptor [1]) | IC50 (human H3 receptor [2]) | second/first exploratory behavior time ratio (male SD rats; 0.3 mg/kg orally to adult male SD rats immediately after first exploratory behavior) | second/first exploratory behavior time ratio (male SD rats; 1 mg/kg orally to adult male SD rats immediately after first exploratory behavior)
5 | O=C(c1cnn(-c2ccc(OC3CCN(C4CCCC4)CC3)cc2)c1)N1CCCC1 [Compound No. 1, 1-cyclopentyl-4-{4-[4-(pyrrolidin-1-ylcarbonyl)-1H-pyrazol-1-yl]phenoxy}piperidine] | 10.4 nM | 2.6 nM | significantly reduced | significantly reduced
6 | CC1CCCC1N1CCC(Oc2ccc(-n3cc(C(=O)N4CCCC4)cn3)cc2)CC1 (stereo not shown) [Compound No. 5, 1-(2-methylcyclopentyl)-4-{4-[4-(pyrrolidin-1-ylcarbonyl)-1H-pyrazol-1-yl]phenoxy}piperidine] | 8.1 nM | – | – | –
7 | O=C(c1cnn(-c2ccc(OC3CCN(C4CCC4)CC3)cc2)c1)N1CCCC1 [Compound No. 14, 1-cyclobutyl-4-{4-[4-(pyrrolidin-1-ylcarbonyl)-1-pyrazol-1-yl]phenoxy}piperidine] | 7.1 nM | 1.6 nM | – | –

From patent US20100113776A1, “PYRAZOLE DERIVATIVE” (TAISHO PHARMACEUTICAL CO.,LTD., priority 2006, published 2010)
